{"source": "patent US20260226493A1", "about": "“HERBICIDE RESISTANT PLANTS” (SYNGENTA CROP PROTECTION AG, priority 2023, published 2026)", "key": {"[1]": {"test_system": "Bacillus subtilis BioA", "assay": "BioA enzyme activity with DMSO or herbicide in vitro", "format": "biochemical", "conditions": "spermidine in substrate mix", "from_the_text": "(§1) A pet-24 plasmid containing a DNA sequence encoding each identified variant mutant of BIO3-BIO1 derived from Arabidopsis thaliana from example 5 above, as shown in Table 13 below and as shown in full in SEQ ID NOs: 15 to 155, codon-optimised for expression in E. coli, with an N-terminal 6×His-tag and thrombin cleavage site and under control of a T7 promoter, and was synthesised by Twist Bioscience, in a similar manner to SEQ ID NO:311. These plasmids were then expressed in E. coli BL21 (DE3) bioA with 50 μg/mL kanamycin and 25 μg/mL chloramphenicol selection. Overnight cultures grown at 37° C. were used to inoculate 8×500 mL AIM in shake flasks at a ratio of 1:100. Cultures were grown at 37° C., 200 rpm for 3.5 hours and then overnight at 20° C. Cells were harvested by centrifugation for 30 minutes at 10 000 g. Cells were stored at −80° C. until extraction. 30 g of cell pellet from was thawed in 120 mL of IMAC buffer A (20 mM HEPES pH7.5, 25 mM imidazole, 500 mM sodium chloride, 0.15 mM pyridoxal phosphate, 0.5 mM TCEP, 1× complete Protease Inhibitor Tablet (Roche)). The resuspension was passed through a cell disrupter at 18 000 PSI and centrifuged at 50 000 g for 25 minutes at 4° C. The His-tagged BIO3-BIO1 protein was purified from the extract supernatant on an AKTA avant chromatography system (Cytiva) using a HisTrap FF column and eluted in IMAC buffer B ((20 mM HEPES pH7.5, 500 mM imidazole, 500 mM sodium chloride, 0.15 mM pyridoxal phosphate, 0.5 mM TCEP) followed by SEC using a HiLoad 26/60 Superdex200 column in SEC buffer (25 mM HEPES pH7.5, 150 mM sodium chloride, 0.15 mM pyridoxal phosphate, 0.5 mM TCEP). Protein concentration was measured and calculated using the absorbance at 280 nm. Extracts were diluted 1 in 4 and 10 uL was analysed by SDS PAGE.\n(§2) To measure BIO3-BIO1 mutant enzyme activity in the presence of herbicide, herbicides were incubated with 20 μL of enzyme mix (100 mM EPPS pH 8.6, 0.1 mM pyridoxal phosphate, 0.1 mg/mL BSA, 50 nM BIO3-BIO1 enzyme) for 10 minutes at 20° C. in a well of a 96-well half-area black plate, followed by the addition of 20 μL of substrate mix (final concentration of 100 mM EPPS pH 8.6, 0.1 mM pyridoxal phosphate, 0.1 mg/mL BSA, 100 μM spermidine, 20 μM KAPA, 100 mM NaCO3) and further incubation for 75 minutes at 20° C. The reaction was terminated by the addition of 50 μL of derivatisation mix (final concentration of 250 mM borate NaOH pH 9.4, 3.6 mM o-phthalaldehyde, 7 mM β-mercaptoethanol, 17% (v/v) ethanol, 3.6% (v/v) methanol). The fluorescent product produced by the reaction of DAPA with o-phthalaldehyde and 7 mM β-mercaptoethanol was measured at 470 nm after excitation at 410 nm. The percentage inhibition was calculated as the activity in the presence of one of three concentrations of each herbicide compound A to M (note that the compounds labelled as A to M are identified hereinabove in the relevant section of the description) as a percentage of the activity in DMSO (Table 12 and 13). The percentage activity versus WT was also calculated and is shown in Table 13 and 14 (NT indicates mutation not tested in table 13, note that these mutations are tested at different compound concentrations for compounds L, M and C, and the results are shown in table 14).\n(§3) Protein of Escherichia coli BioA (SEQ ID NO:159), Pantoea ananatis BioA (SEQ ID NO:167), Streptomyces viridochromogenes BioA (SEQ ID NO:170), Cryptosporidium andersoni BioA (SEQ ID NO:160), Stenotrophomonas maltophilia BioA (SEQ ID NO:171), Chroococcidiopsis BioA (SEQ ID NO:184), Pedobacter hartonius BioA (SEQ ID NO:181), Chitinophaga filiformis BioA (SEQ ID NO:180), Tenacibaculum adriaticum BioA (SEQ ID NO:185) and Bacillus subtilis BioA (SEQ ID NO:166) was prepared using the method in Example 6. BioA enzyme activity in the presence of herbicide or DMSO in vitro for each of the proteins was assayed according to the enzyme assay method in Example 6, except in some reactions spermidine was replaced with 2 mM S-Adenosyl methionine."}, "[2]": {"test_system": "Pedobacter hartonius BioA", "assay": "BioA enzyme activity with DMSO or herbicide in vitro", "format": "biochemical", "conditions": "spermidine in substrate mix", "from_the_text": "as §1, §2, §3"}, "[3]": {"biological_target": "T1, Escherichia coli BioA (Escherichia coli, UniProt P12995)", "T1 construct": "6xHis-tag (N); thrombin cleavage site (N); made in house; host or cells: E. coli BL21 (DE3) bioA", "assay": "BioA enzyme activity with DMSO or herbicide in vitro", "format": "biochemical", "conditions": "SAM in substrate mix, read-out: % Inhibition relative to DMSO treatment", "from_the_text": "as §1, §2, §3"}, "[4]": {"test_system": "Tenacibaculum adriaticum BioA", "assay": "BioA enzyme activity with DMSO or herbicide in vitro", "format": "biochemical", "conditions": "spermidine in substrate mix", "from_the_text": "as §1, §2, §3"}, "[5]": {"test_system": "Chroococcidiopsis BioA", "assay": "BioA enzyme activity with DMSO or herbicide in vitro", "format": "biochemical, Chroococcidiopsis sp. CCMEE 29", "conditions": "spermidine in substrate mix", "from_the_text": "as §1, §2, §3"}, "[6]": {"test_system": "Ostreococcus tauri BioDA", "assay": "BioDA enzyme activity with DMSO or herbicide in vitro", "format": "biochemical", "conditions": "Ostreococcus tauri BioDAΔMTP", "from_the_text": "as §1, §2\n(§4) The activity of various wild-type BioDA and variant enzymes was also tested when treated with DMSO or herbicide in vitro.\n(§5) Protein of Schizosaccharomyces japonicus BioDA (SEQ ID NO:13), Nannochloropsis gaditana BioDA (SEQ ID NO:3), Selaginella moellendorffii BioDA (SEQ ID NO:319), Quercus robur BioDA (SEQ ID NOA11), Ostreococcus tauri BioDA (SEQ ID NO:9), and the variants of Ostreococcus tauri BioDA A374D, F332A and P407A (SEQ ID Nos:321-323) was prepared using the method in Example 6. BioDA enzyme activity in the presence of herbicide or DMSO in vitro for each of the proteins was assayed according to the enzyme assay method above. The results are shown in Table 26 provided below in the “TABLES” section."}, "[7]": {"test_system": "Nannochloropsis gaditana BioDA", "assay": "BioDA enzyme activity with DMSO or herbicide in vitro", "format": "biochemical", "from_the_text": "as §1, §2, §4, §5"}, "[8]": {"test_system": "Schizosaccharomyces japonicus BioDA", "assay": "BioDA enzyme activity with DMSO or herbicide in vitro", "format": "biochemical", "from_the_text": "as §1, §2, §4, §5"}, "[9]": {"test_system": "Quercus robur BioDA", "assay": "BioDA enzyme activity with DMSO or herbicide in vitro", "format": "biochemical", "conditions": "Quercus robur BioDAΔMTP", "from_the_text": "as §1, §2, §4, §5"}, "[10]": {"test_system": "Selaginella moellendorffii BioDA", "assay": "BioDA enzyme activity with DMSO or herbicide in vitro", "format": "biochemical", "conditions": "Selaginella moellendorcffii BioDAΔMTP", "from_the_text": "as §1, §2, §4, §5"}}, "data": [{"smiles": "CC(O)C(N)CCCCC(=O)O.Cl", "note": "(centres unmarked) [Compound B, [5-carboxy-1-(1-hydroxyethyl)pentyl]ammonium chloride]", "values": [{"measurement": "% Inhibition relative to DMSO treatment", "setting": "[1]; 200 μM", "value": 0, "unit": "%"}, {"measurement": "% Inhibition relative to DMSO treatment", "setting": "[2]; 200 μM", "value": 96, "unit": "%"}, {"measurement": "inhibition at 31 µM", "setting": "[3]", "value": 4, "unit": "%"}, {"measurement": "inhibition at 200 µM", "setting": "[3]; 200 μM", "value": 9, "unit": "%"}, {"measurement": "inhibition at 500 µM", "setting": "[3]", "value": 23, "unit": "%"}, {"measurement": "% Inhibition relative to DMSO treatment", "setting": "[4]; 200 μM", "value": 18, "unit": "%"}, {"measurement": "% Inhibition relative to DMSO treatment", "setting": "[5]; 200 μM", "value": 99, "unit": "%"}, {"measurement": "% Inhibition relative to DMSO treatment", "setting": "[6]; 200 μM", "value": 62, "unit": "%"}, {"measurement": "% Inhibition relative to DMSO treatment", "setting": "[7]; 200 μM", "value": 92, "unit": "%"}, {"measurement": "% Inhibition relative to DMSO treatment", "setting": "[8]; 200 μM", "value": 70, "unit": "%"}, {"measurement": "% Inhibition relative to DMSO treatment", "setting": "[9]; 200 μM", "value": 93, "unit": "%"}, {"measurement": "% Inhibition relative to DMSO treatment", "setting": "[10]; 200 μM", "value": 64, "unit": "%"}]}, {"smiles": "CCn1c(Cn2ccc(C(F)(F)F)n2)cc(=O)c(C(=O)O)c1-c1ccc(Cl)c(Cl)c1", "note": "[Compound L, 2-(3,4-dichlorophenyl)-1-ethyl-4-oxo-6-[[3-(trifluoromethyl)pyrazol-1-yl]methyl]pyridine-3-carboxylic acid]", "values": [{"measurement": "% Inhibition relative to DMSO treatment", "setting": "[1]; 0.5 μM", "value": 0, "unit": "%"}, {"measurement": "% Inhibition relative to DMSO treatment", "setting": "[2]; 0.5 μM", "value": 2, "unit": "%"}, {"measurement": "inhibition at 0.5 µM", "setting": "[3]", "value": 4, "unit": "%"}, {"measurement": "inhibition at 31 µM", "setting": "[3]", "value": 8, "unit": "%"}, {"measurement": "inhibition at 500 µM", "setting": "[3]", "value": 35, "unit": "%"}, {"measurement": "% Inhibition relative to DMSO treatment", "setting": "[4]; 0.5 μM", "value": 16, "unit": "%"}, {"measurement": "% Inhibition relative to DMSO treatment", "setting": "[5]; 0.5 μM", "value": 15, "unit": "%"}, {"measurement": "% Inhibition relative to DMSO treatment", "setting": "[6]; 0.5 μM", "value": 5, "unit": "%"}, {"measurement": "% Inhibition relative to DMSO treatment", "setting": "[6]; 31 μM", "value": 83, "unit": "%"}, {"measurement": "% Inhibition relative to DMSO treatment", "setting": "[6]; 500 μM", "value": 98, "unit": "%"}, {"measurement": "% Inhibition relative to DMSO treatment", "setting": "[7]; 0.5 μM", "value": 6, "unit": "%"}, {"measurement": "% Inhibition relative to DMSO treatment", "setting": "[8]; 0.5 μM", "value": 0, "unit": "%"}, {"measurement": "% Inhibition relative to DMSO treatment", "setting": "[8]; 31 μM", "value": 55, "unit": "%"}, {"measurement": "% Inhibition relative to DMSO treatment", "setting": "[8]; 500 μM", "value": 94, "unit": "%"}, {"measurement": "% Inhibition relative to DMSO treatment", "setting": "[9]; 0.5 μM", "value": 83, "unit": "%"}, {"measurement": "% Inhibition relative to DMSO treatment", "setting": "[10]; 0.5 μM", "value": 9, "unit": "%"}]}, {"smiles": "CCn1c(C)c(-c2ccc(F)cc2F)c(=O)c(C(=O)O)c1-c1ccc(Cl)c(Cl)c1", "note": "[Compound C, 2-(3,4-dichlorophenyl)-5-(2,4-difluorophenyl)-1-ethyl-6-methyl-4-oxo-pyridine-3-carboxylic acid]", "values": [{"measurement": "% Inhibition relative to DMSO treatment", "setting": "[1]; 0.5 μM", "value": 0, "unit": "%"}, {"measurement": "% Inhibition relative to DMSO treatment", "setting": "[2]; 0.5 μM", "value": 0, "unit": "%"}, {"measurement": "inhibition at 0.5 µM", "setting": "[3]", "value": 8, "unit": "%"}, {"measurement": "% Inhibition relative to DMSO treatment", "setting": "[4]; 0.5 μM", "value": 19, "unit": "%"}, {"measurement": "% Inhibition relative to DMSO treatment", "setting": "[5]; 0.5 μM", "value": 2, "unit": "%"}, {"measurement": "% Inhibition relative to DMSO treatment", "setting": "[6]; 0.5 μM", "value": 0, "unit": "%"}, {"measurement": "% Inhibition relative to DMSO treatment", "setting": "[7]; 0.5 μM", "value": 8, "unit": "%"}, {"measurement": "% Inhibition relative to DMSO treatment", "setting": "[8]; 0.5 μM", "value": 17, "unit": "%"}, {"measurement": "% Inhibition relative to DMSO treatment", "setting": "[9]; 0.5 μM", "value": 32, "unit": "%"}, {"measurement": "% Inhibition relative to DMSO treatment", "setting": "[10]; 0.5 μM", "value": 9, "unit": "%"}]}]}
